What is called pIC50 is −log10 of the IC50, conventionally taken in molar units.

pIC50: −log10 of the molar value.

Among the data in patent US20060211670A1, “Antitumoral18a-homoestra-1,3,5(10)-trien-3yl 2-substituted sulfamates” (priority 2003, published 2006) are IC50 values, retold here.

For assay [1], the system named is HCT116 human colon tumor cells. Description: Inhibition of cell proliferation (crystal violet), HCT116. It is filed as cell-based. The settings on record: HCT116, 4 days incubation. The protocol:
(§1) Cell cultures of the following cell lines were prepared in 96-well microtiter plates: • 1. MaTu/ADR multidrug-resistant human breast tumor cells (Epo GmbH Berlin), 5000 cells/well. • 2. HCT116 human colon tumor cells (ATCC CCL-247), 3000 cells/well. • 3. NCl-H460 human non-small-cell lung cancer cells (ATCC HTB-177), 3000 cells/well. • 4. DU145 human prostate tumor cells (ATCC HTB-81), 5000 cells/well. • 5. HMVEC human primary dermal microvascular endothelial cells, 7500 cells/well.
(§2) After 24 hours of incubation in a cell culture incubator at 37° C., the cells of a microtiter plate were stained with crystal violet (reference plate), while the cells in the test plates were incubated for 4 days with the test substances in the concentrations […], as well as with the DMSO solvent by itself (solvent control). The cell proliferation was determined by staining cells with crystal violet. The extinction of the crystal violet was determined by photometry at 595 nm. The percentage of the change in the cell number in the test plates was determined after the extinction values were normalized to the reference plate (0%) and to the solvent control (100%). The semi-maximal inhibition of the cell growth (IC50) was determined as the substance concentration, in which 50% of the cell number of the solvent controls were present.

Assay [2] has as its system HMVEC human primary dermal microvascular endothelial cells. Description: Inhibition of cell proliferation (crystal violet), HMVEC. The assay is classed as cell-based. To be noted: 4 days incubation. The protocol:
as §1, §2

The test system of assay [3] is MaTu/ADR multidrug-resistant human breast tumor cells. Description: Inhibition of cell proliferation (crystal violet), MaTu/ADR. The assay is classed as cell-based. The settings on record: 4 days incubation. The protocol:
as §1, §2

In assay [4] the test system is DU145 human prostate tumor cells. Description: Inhibition of cell proliferation (crystal violet), DU145. To be noted: DU145, 4 days incubation. The assay is classed as cell-based. The protocol: as §1, §2
The test system of assay [5] is NCl-H460 human non-small-cell lung cancer cells. Description: Inhibition of cell proliferation (crystal violet), NCl-H460. It is filed as cell-based. The settings on record: NCl-H460, 4 days incubation. The protocol:
as §1, §2

Assay [6] addresses T1, microtubular protein (tubulin) from pig brains (Sus scrofa, UniProt P02550+P02554).
T1 construct: microtubular protein was purified from pig brains via cydic assembling/disassembling; from tissue; host or cells: pig brain
Description: Inhibition of tubulin polymerization (turbidimetry at 340 nm). It is filed as biochemical. The settings on record: pig brain microtubular protein 1 mg/ml, 0.25 mmol GTP, 37° C.
Description: The in-vitro testing of the tubulin polymerization influence was performed as follows:
The buffer system used had the following composition: 20 mmol of PIPES (1,4-piperazine-diethane-sulfonic acid, pKa 6.8), 80 mmol of NaCl, 0.5 mmol of MgCl2, 1 mmol of EGTA (ethylene glycol-bis-(2-aminoethylene)-tetraacetic acid).
For active ingredient testing, protein concentrations of 1 mg/ml (about 10^−5 mmol of tubulin) were used. The determination of protein was carried out according to the Lowry Method (Lowry et al. J. Biol. Chem. 1951, 193, 265-75) with bovine serum albumin as a standard. The assembling of microtubuli was carried out in the presence of 0.25 mmol of GTP and heating the samples to 37° C.
The microtubulus formation was examined by means of turbidimetry at a wavelength of 340 nm.
Testing of the active ingredients was carried out by their addition at the beginning of the assembling or in the state of equilibrium. Deviations of turbidity curves from the control characterize its activity. To monitor action and to evaluate the measured turbidity values, a transmission electron microscopic study (CEM 902 A, Zeiss/Oberkochen) of the assemblates was always performed after negative staining with 1% aqueous uranyl acetate.

T1 sequence (P02550 whole entry): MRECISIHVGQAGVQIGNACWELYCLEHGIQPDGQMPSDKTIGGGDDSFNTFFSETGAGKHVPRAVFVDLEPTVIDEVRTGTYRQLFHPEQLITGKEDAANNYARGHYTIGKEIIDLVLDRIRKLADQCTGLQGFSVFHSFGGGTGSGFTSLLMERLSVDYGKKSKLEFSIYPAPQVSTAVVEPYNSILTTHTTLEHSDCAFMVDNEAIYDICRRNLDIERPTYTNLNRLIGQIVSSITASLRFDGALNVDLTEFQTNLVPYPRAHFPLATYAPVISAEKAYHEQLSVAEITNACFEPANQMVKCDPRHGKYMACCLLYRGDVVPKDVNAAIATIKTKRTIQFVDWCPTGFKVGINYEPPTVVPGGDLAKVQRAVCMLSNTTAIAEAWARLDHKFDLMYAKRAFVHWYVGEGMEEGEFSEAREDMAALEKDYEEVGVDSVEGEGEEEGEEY
T1 sequence (P02554 whole entry): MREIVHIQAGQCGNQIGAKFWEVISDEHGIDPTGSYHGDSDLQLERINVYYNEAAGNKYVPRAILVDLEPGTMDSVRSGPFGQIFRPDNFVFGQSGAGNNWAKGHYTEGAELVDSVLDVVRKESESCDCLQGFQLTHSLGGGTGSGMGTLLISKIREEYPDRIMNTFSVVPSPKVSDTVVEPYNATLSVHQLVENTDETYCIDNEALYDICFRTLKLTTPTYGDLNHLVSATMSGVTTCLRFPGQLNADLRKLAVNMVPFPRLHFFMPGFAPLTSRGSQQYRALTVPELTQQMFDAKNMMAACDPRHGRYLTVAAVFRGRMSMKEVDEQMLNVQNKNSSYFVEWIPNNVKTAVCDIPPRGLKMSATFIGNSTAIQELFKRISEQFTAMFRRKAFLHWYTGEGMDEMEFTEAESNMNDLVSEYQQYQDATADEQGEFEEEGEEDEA

As for `COc1cc2c(cc1O)CC[C@@H]1[C@@H]2CC[C@]2(C)[C@@H](O)CC[C@@H]12` [2-Methoxyestradiol, reference compound], the pIC50 in assay [1] is 5.96; in assay [2] it was 5.66; in assay [3], 6.70; in assay [4] it was 5.72; in assay [5], 5.74; in assay [6], 5.57.
Consider `CC[C@]12CC[C@@H]3c4cc(OC)c(OS(N)(=O)=O)cc4CC[C@H]3[C@@H]1CC[C@@H]2O` [(1), 17β-Hydroxy-2-methoxy-18a-homoestra-1,3,5(10)-trien-3-yl sulfamate], for which the pIC50 was over 7.00 in assay [1] (Homo sapiens, HCT-116, 96 h); over 7.00 in assay [2] (Homo sapiens, 96 h); over 7.00 in assay [3] (Homo sapiens, 96 h); 6.82 in assay [4] (Homo sapiens, DU-145, 96 h); over 7.00 in assay [5] (Homo sapiens, 96 h); 6.30 in assay [6].
Regarding `CCOc1cc2c(cc1OS(N)(=O)=O)CC[C@@H]1[C@@H]2CC[C@]2(CC)[C@@H](O)CC[C@@H]12` [(2), 2-Ethoxy-17β-hydroxy-18a-homoestra-1,3,5(10)trien-3-yl sulfamate], the pIC50 was 6.40 in assay [1]; 6.30 in assay [2]; 7.00 in assay [3]; 6.05 in assay [4]; 6.52 in assay [5].
As to `CC[C@@]12CCC[C@H]1[C@@H]1CCc3cc(OS(N)(=O)=O)c(OC)cc3[C@H]1CC2` [(4), 2-Methoxy-18a-homoestra-1,3,5(10)-trien-3-yl sulfamate], the pIC50 in assay [1] (Homo sapiens, HCT-116, 96 h) is 6.22; in assay [2] (Homo sapiens, 96 h), 6.22; in assay [3] (Homo sapiens, 96 h), 6.35; in assay [4] (Homo sapiens, DU-145, 96 h), 6.22; in assay [5] (Homo sapiens, 96 h), 6.30; in assay [6], 5.74.
On to `CC[C@]12CC[C@@H]3c4cc(OC)c(OS(N)(=O)=O)cc4CC[C@H]3[C@@H]1CC[C@@H]2OC` [(5), 2,17β-Dimethoxy-18a-homoestra-1,3,5(10)-trien-3-yl Sulfamate], for which the pIC50 in assay [1] is over 7.00; in assay [2], over 7.00; in assay [3] it was over 7.00; in assay [4], 6.72; in assay [5], 6.89.
`CCc1cc2c(cc1OS(N)(=O)=O)CC[C@@H]1[C@@H]2CC[C@]2(CC)[C@@H](OS(N)(=O)=O)CC[C@@H]12` [(6), 2-Ethyl-18a-homoestra-1,3,5(10)-triene-3,17β-diyl Sulfamate]: the pIC50 in assay [1] is 6.74; in assay [2], over 7.00; in assay [3] it was 7.00; in assay [4] it was 6.74; in assay [5], 6.74.
For the compound `CC(=O)O[C@H]1C(=O)[C@@]2(C)[C@H]([C@H](OC(=O)c3ccccc3)[C@]3(O)C[C@H](OC(=O)[C@H](O)[C@@H](NC(=O)c4ccccc4)c4ccccc4)C(C)=C1C3(C)C)[C@]1(OC(C)=O)CO[C@@H]1C[C@@H]2O` [Taxol, reference compound], the pIC50 in assay [1] (Homo sapiens, HCT-116, 96 h) is 8.40; in assay [2] (Homo sapiens, 96 h), 8.40; in assay [3] (Homo sapiens, 96 h) it was 6.40; in assay [4] (Homo sapiens, DU-145, 96 h), 8.40; in assay [5] (Homo sapiens, 96 h), 8.40.
